Consider 28 compounds from US11946094B2, “Combination therapies and methods of use thereof” (Augusta University Research Institute, Inc., priority 2017, dated 2024).

Read-outs that look alike come from different tables or passages of the source.

The experiment concerns OVCAR-8 cells. The experiment is described as follows: Drug-siRNA combination screen: 346-compound anticancer library at 100 nM, CCK-8 viability. To be noted: for synergy / antagonism of drug with gene knockdowns, in words / number of genes (of 18) whose knockdown synergizes with the drug: drug 100 nM; for synergy / antagonism of drug with gene knockdowns, in words: panel of 18 siRNA knockdowns; for number of genes (of 18) whose knockdown synergizes with the drug: siRNA knockdown.

[1] abbreviates: OVCAR-8, drug 100 nM plus siRNA knockdown of each of 18 genes, distance VAB−VA×VB in SD, single gene contributes at most +5 / −5, negative = synergy, positive = antagonism.

As for `CCN(CC)CCCCNc1ncc2cc(-c3cc(OC)cc(OC)c3)c(NC(=O)NC(C)(C)C)nc2n1` [PD173074], the “Score (sum of observed SD values for 18 genes)” value under setting [1] was −46.63 SD. Besides, the “synergy / antagonism of drug with gene knockdowns, in words” value (“synergy / antagonism of drug” below) (OVCAR-8) was “significant synergy with nine or more genes”.
In the case of `O=C(NOC[C@H](O)CO)c1ccc(F)c(F)c1Nc1ccc(I)cc1F` [PD0325901], the “Score (sum of observed SD values for 18 genes)” value under setting [1] is recorded as −37.42 SD.
For the compound `CS(=O)(=O)c1cccc(CNc2nc(Nc3ccc4c(c3)CCC(=O)N4)ncc2C(F)(F)F)c1` [PF 573228], the “Score (sum of observed SD values for 18 genes)” value under setting [1] is on record as −28.79 SD.
With `CN(c1ncccc1CNc1nc(Nc2ccc3c(c2)CC(=O)N3)ncc1C(F)(F)F)S(C)(=O)=O` [PF - 562271], the “Score (sum of observed SD values for 18 genes)” value under setting [1] is reported as −17.41 SD.
The same measure, in the same setting: as for `O=C(Nc1cccnc1)N1CCC(Cc2cccc(Oc3ccc(C(F)(F)F)cn3)c2)CC1` [PF-3845], the figure is -51.78 SD.
With `CC(=O)NCC(=O)N1[C@@H]2CC[C@H]1c1ccc(Nc3ncc(C(F)(F)F)c(NC4CCC4)n3)cc12` [PF-03814735], the “Score (sum of observed SD values for 18 genes)” value under setting [1] was −30.13 SD. In addition, the “synergy / antagonism of drug” value (OVCAR-8) is recorded as “significant synergy”.
With `OCCn1cc(-c2cnc3nnn(Cc4ccc5ncccc5c4)c3n2)cn1` [PF-04217903], under setting [1], the “Score (sum of observed SD values for 18 genes)” value is given as −6.89 SD.
As to `CNC(=O)c1ccc(C)c(-n2c(C)cc(OCc3ccc(F)cc3F)c(Br)c2=O)c1` [PH-797804], under setting [1], the “Score (sum of observed SD values for 18 genes)” value is on record as -64.86 SD. Moreover, the “number of genes (of 18) whose knockdown synergizes with the drug” value (OVCAR-8) stood at 14 genes.
For the compound `Cc1[nH]c(/C=C2\C(=O)Nc3ccc(S(=O)(=O)Cc4c(Cl)cccc4Cl)cc32)c(C)c1C(=O)N1CCC[C@@H]1CN1CCCC1` [PHA-665752], the “Score (sum of observed SD values for 18 genes)” value under setting [1] is −13.95 SD.
For the compound `CC(C)CC(=O)Nc1[nH]nc2c1CN(C(=O)C1CCN(C)CC1)C2(C)C` [PHA-793887], the “Score (sum of observed SD values for 18 genes)” value under setting [1] is reported as −42.75 SD. Further, the “synergy / antagonism of drug” value (OVCAR-8) is on record as “strong synergies with multiple genes”.
Taken in the same sequence, the figures for `Oc1cccc(-c2nc(N3CCOCC3)c3oc4ncccc4c3n2)c1` [PI-103] were -56.96 SD and “synergy to the vast majority of genes”.
Take `Cc1ccc([N+](=O)[O-])cc1S(=O)(=O)N(C)/N=C/c1cnc2ccc(Br)cn12` [PIK-75]: the “Score (sum of observed SD values for 18 genes)” value under setting [1] was −19.42 SD.
Still for that read-out and setting: as for `COc1ccc2c(c1OC)N=C(NC(=O)c1cccnc1)N1CCN=C21` [PIK-90], the figure is −44.52 SD; as for `CC(=O)Nc1nc(C)c(-c2ccc(Cl)c(S(=O)(=O)NCCO)c2)s1` [PIK-93], −20.62 SD.
For the compound `CC(=O)c1c(C)c2cnc(Nc3ccc(N4CCNCC4)cn3)nc2n(C2CCCC2)c1=O` [Palbociclib], the “Score (sum of observed SD values for 18 genes)” value under setting [1] is −30.45 SD.
Same read-out and setting: the same measure for `COc1ccc(COc2cc3oc(=O)c4cc(C(C)O)ccc4c3cc2OC)cc1` (centres unmarked) [Palomid 529]: 11.53 SD.
On to `NCCC(O)(P(=O)(O)O)P(=O)(O)O` [Pamidronate Disodium], for which the “Score (sum of observed SD values for 18 genes)” value under setting [1] is given as −2.39 SD.
For `CCOc1cc2ncc(C#N)c(Nc3ccc(F)c(Cl)c3)c2cc1NC(=O)/C=C/CN(C)C` [Pelitinib], the “Score (sum of observed SD values for 18 genes)” value under setting [1] was -54.75 SD.
In the case of `O=C(CCc1ccc(O)cc1)c1c(O)cc(O)cc1O` [Phloretin], the “Score (sum of observed SD values for 18 genes)” value under setting [1] is −16.21 SD.
On the same count and under the same terms, as for `CCc1ccc(CCOc2ccc(CC3SC(=O)NC3=O)cc2)nc1` (centres unmarked) [Pioglitazone], the figure is −37.6 SD; as for `Nc1cccc2c1C(=O)N(C1CCC(=O)NC1=O)C2=O` (centres unmarked) [Pomalidomide], −3.4 SD.
Take `Cc1ccc(C(=O)Nc2ccc(CN3CCN(C)CC3)c(C(F)(F)F)c2)cc1C#Cc1cnc2cccnn12` [Ponatinib]: the “Score (sum of observed SD values for 18 genes)” value is on record as −28.62 SD.
As to `CCCCc1nc2cc(/C=C/C(=O)NO)ccc2n1CCN(CC)CC` [Pracinostat], the “Score (sum of observed SD values for 18 genes)” value under setting [1] is −43.48 SD. Where the note is “OVCAR-8”, the “synergy / antagonism of drug” value is listed as “mostly synergistic” and the “number of genes (of 18) whose knockdown synergizes with the drug” value is reported as 11 genes.
Regarding `C[C@]12C=CC(=O)C=C1CC[C@@H]1[C@@H]2C(=O)C[C@@]2(C)[C@H]1CC[C@]2(O)C(=O)CO` [Prednisone], the “Score (sum of observed SD values for 18 genes)” value under setting [1] is recorded as −20.64 SD.
For the compound `O=c1c(O)c(-c2ccc(O)c(O)c2)oc2cc(O)cc(O)c12` [Quercetin], under setting [1], the “Score (sum of observed SD values for 18 genes)” value is −5.63 SD.
Take `CC(C)(C)c1cc(NC(=O)Nc2ccc(-c3cn4c(n3)sc3cc(OCCN5CCOCC5)ccc34)cc2)no1` [Quizartinib]: the “Score (sum of observed SD values for 18 genes)” value under setting [1] was −12.85 SD.
For the compound `COc1cc(Nc2ncc(F)c(Nc3ccc4c(n3)NC(=O)C(C)(C)O4)n2)cc(OC)c1OC` [R406], the “Score (sum of observed SD values for 18 genes)” value under setting [1] is recorded as −28.54 SD.
The same measure, in the same setting: the same measure for `O=C(O)C(Cc1c[nH]c2ccccc12)N1C(=O)c2ccccc2C1=O` (centres unmarked) [RG108]: −0.52 SD.
